# Reference: patent US8071556B2, “Peptide substance revealing a stress protective effect, pharmaceutical composition on its base, and the method of its application” (Obschestvo S Ogranichennoi Otvetstevennostyu “Sia Peptides”, priority 2006, dated 2011)
# Positions of bridges follow the written chain, without caps; N, C: chain ends. Non-standard residues stand in square brackets, D forms with d. Residues, ends and D or L forms follow the SMILES beside them. *: point of attachment. Ileψ(thiazoline)Cys = CC[C@H](C)[C@H](N)C1=N[C@H](C(=O)*)CS1; dOrn = NCCC[C@@H](N)C(=O)O
# Tests used:
# [1] = test system: enkephalinases in human blood serum; experiment: Activity of enkephalinases in human blood serum ([3H]Leu-enkephalin disintegration); format: biochemical; conditions: 0.15 μM [3H]Leu-enkephalin
# Description: The ability of peptide H-Glu-Asp-Gly-OH to influence the activity of endogen opioid peptide degradation enzymes, i.e. […], was estimated in kinetic studies judging by disintegration of low concentrations (0.15 μM) of [^3H]Leu-enkephalin by human blood serum enzymes. Commonly used enkephalinase inhibitors N-carboxymethyl-Phe-Leu (N-CMPL) and bacitracin were used as comparison substances. Summary enkephalinase activity of the blood serum taken from 5 healthy donors, was estimated in vitro. Results were evaluated after 4 studies.
# [2] = parameters: species or system male guinea pigs; conditions: guinea pig, in vivo
# Description: (§1) Common toxicity of peptide H-Glu-Asp-Gly-OH was studied according to the requirements stated in the “Manual for experimental (pre-clinical) study of new pharmacological substances” (2000): acute toxicity in case of single administration of the substance, as well as sub-acute and chronic toxicity in case of long-term administration of the peptide.
# The studies of chronic toxicity were conducted for 6 months, basing on the term of recommended clinical administration of the substance, on 92 male guinea pigs with body weight of 310-350 g. Experimental animals received the peptide daily, once a day, intramuscularly, for 6 months in the doses of 1 μg/kg, 0.1 mg/kg, 1 mg/kg in 0.5 ml of sterile 0.9% NaCl solution. Control animals received sterile 0.9% NaCl solution in the same volume and by the same schedule. Traditional methods were used for the evaluation of the following indices of the animals' peripheral blood: the quantity of erythrocytes, hemoglobin, reticulocytes, thrombocytes, leukocytes, leukocyte formula, erythrocyte sedimentation rate (ESR), erythrocyte resistance. Alongside with that, the content of total protein in the serum was identified using Lowry's method, as well as potassium and sodium content using the method of plasma spectrophotometry. After the completion of the experiment pathomorphologic studies of animal brain and spinal cord, spinal cord ganglia, thyroid gland, parathyroid glands, adrenal glands, testis, pituitary gland, heart, lungs, aorta, liver, kidneys, urinary bladder, pancreas, stomach, small intestine, large intestine, thymus, spleen, lymph nodes and bone marrow were performed.
# [3] = test system: c-fos gene expression in the neurons of rat hypothalamic paraventricular nucleus; experiment: c-fos gene expression in neurons of rat hypothalamic paraventricular nucleus under emotional stress; format: in vivo, Wistar rats
# Description: The effect of peptide H-Glu-Asp-Gly-OH was studied in the paraventicular nucleus of hypothalamus (PVH) in stress-resistant and stress-prone animals, as well as in rats exposed to emotional stress.
# The experiments were conducted on 28 Wistar rats.
# Behavior of the animals was preliminarily (for the purpose of identifying the extent of their resistance to emotional stress) estimated in the “open field” test. The effectiveness of peptide H-Glu-Asp-Gly-OH was studied on stress-resistant and stress-prone rats. Peptide H-Glu-Asp-Gly-OH was administered intraperitoneally in the doses of 0.1 and 0.01 μg per rat 7-10 days after the first “open field” test. One hour after the injection the rats were exposed to the 60 minutes emotional stress, which was modulated by motional restriction.
# To identify the cells, containing Fos protein, which is a product of the early c-fos gene expression, an immunohystochemical investigation of brain section with automated counting of Fos-positive cells was performed. The peculiarities of c-fos gene induction were studied in the PVH.
# [4] = Sub-acute toxicity, 90 days intramuscular administration; format: in vivo, white mongrel male rats; conditions: rats; intramuscular daily for 90 days; doses exceeding the therapeutic one by 100-1000 times
# Description: as §1
# Sub-acute toxicity was studied on 64 white mongrel male rats with body weight of 180-220 g. Experimental animals daily, once a day, for 90 days received the substance intramuscularly in the doses of 1 μg/kg, 0.1 mg/kg, 1 mg/kg in 0.5 ml of sterile 0.9% NaCl solution. Control animals received sterile 0.9% NaCl solution in the same volume. Morphological composition and properties of the animals' peripheral blood was studied before the administration of the substance, as well as on the 30th, 60th and 90th day after the beginning of the administration of the substance. Biochemical and coagulologic indices of the blood were studied upon completion of the experiment.
# [5] = Acute toxicity, single intramuscular administration; format: in vivo, white mongrel male mice; conditions: mice, 1-5 mg/kg, dose exceeding the therapeutic one by more than 5000 times
# Description: as §1
# Acute toxicity was studied on 66 white mongrel male mice with body weight of 20-22 g. The animals were randomly subdivided into 6 equal groups. The substance was administered to the animals once, intramuscularly, in the doses of 1 mg/kg, 2 mg/kg, 3 mg/kg, 4 mg/kg, 5 mg/kg in 0.25 ml of sterile 0.9% NaCl solution. Control animals received 0.9% NaCl solution in the same volume.
# [6] = Human functional status under low oxygen partial pressure (pressure chamber rise to 5000 meters); format: in vivo; conditions: healthy men
# Description: Effect of peptide H-Glu-Asp-Gly-OH on human functional status and working ability in extreme conditions under the effect of low oxygen partial pressure was studied by examining 80 healthy men aged 20-22 years. The participants of the study were subdivided into 3 groups: 20 men formed the control group, while main groups I and II consisted of 30 persons each. Background study, including the examination of respiratory, cardiovascular and central nervous systems was performed on the first day of the experiment.
# After the completion of background study the members of main group I began receiving the pharmaceutical composition, containing peptide H-Glu-Asp-Gly-OH as its active base, by intranasal infusions, in the dose of 5.0 mg in 1 ml of physiological solution (subgroup I), in the dose of 100.0 μg (subgroup II) and in the dose of 1.0 μg in 1.0 ml of physiological solution (subgroup III) […], for 2 days. Thus, the members of main group I received the peptide H-Glu-Asp-Gly-OH intranasally in the dose of 10 mg (subgroup I), 200 μg (subgroup II) and 2 μg (subgroup III) per course.
# Members of main group II began receiving the pharmaceutical composition, containing the peptide H-Glu-Asp-Gly-OH as its active base, after the completion of background study, intramuscularly, in the dose of 5.0 mg in 1 ml of physiological solution (subgroup I), in the dose of 100.0 μg (subgroup II) and in the dose of 1.0 μg in 1.0 ml of physiological solution (subgroup III) daily, once a day, for 2 days.
# Members of the control group received placebo in the form water for injections.
# On the 4th day of the experiment the members of all 3 groups were subjected to the effect of hypoxic hypoxia by “rising” them to the altitude of 5000 meters for 60 minutes of exposition without auxiliary oxygen supply, which was imitated using the pressure chamber SBK-80. Participants of the experiment were shortly examined before the beginning of the “rise”, during the experiment and after its completion. On the 5th day of the experiment all participants were subjected to a full scale final examination. During the study reactive anxiety in all participants was on the moderate level (31-45 points). […] After 2 days of administration of the pharmaceutical composition containing peptide H-Glu-Asp-Gly-OH in different doses as its active base reactive anxiety in participants of the experiment was reduced by 10-13% depending on the dosage and method of administration of the pharmaceutical composition as compared to the members of the control group.
# [7] = test system: biogen amines in rat blood serum; experiment: Level of biogen amines in rat blood serum after peptide administration; format: in vivo; conditions: 2.5 μg/kg intraperitoneal daily for 5 days, vs control (FIG. 2)
# Description: (§2) The study was performed on 27 white mongrel rats of both sexes with body weight of 300-320 g.
# (§3) The animals were subjected to intraperitoneal injection of peptide H-Glu-Asp-Gly-OH in the dose of 2.5 μg/kg in 0.5 ml of sterile 0.9% NaCl solution daily for 5 days.
# (§4) Control rats received sterile 0.9% NaCl solution in the same volume and by the same schedule.
# (§5) Upon completion of peptide administration the animals were decapitated, and the content of noradrenaline, dopamine, 5-oxyindolacetic acid, serotonin and histamine was evaluated in the brain cortex and blood serum.
# [8] = test system: biogen amines in rat brain cortex; experiment: Level of biogen amines in rat brain cortex after peptide administration; format: in vivo; conditions: 2.5 μg/kg intraperitoneal daily for 5 days, vs control (FIG. 1)
# Description: as §2, §3, §4, §5
# [9] = test system: c-Fos protein in rat pineal gland; experiment: c-Fos protein level and parenchyma status in rat pineal gland in osmotic stress; format: in vivo; conditions: rats, 48-hour osmotic stress
# Description: Effect of intranasally administered H-Glu-Asp-Gly-OH peptide on c-Fos protein content in stress-affected rat pineal gland was studied. Immunohistochemical study of c-Fos protein content was performed in two groups of rats—intact and subjected to 48-hour osmotic stress. The latter were intranasally administered with peptide H-Glu-Asp-Gly-OH in the dose of 0.5 μg per animal in 0.1 ml of sterile physiological 0.9% NaCl solution (last infusion was performed 2 hours before taking the material). Pineal gland parenchyma in all groups of animals was studied using light optical appliances.
# [10] = 10 μg/ml, human blood serum of 5 healthy donors (FIG. 5)
# [11] = end of the test, depending on the dosage and method of administration, placebo 10-11%
smiles,measurement,setting,value
"CC(C)C[C@H](NC(=O)[C@H](Cc1ccccc1)NCC(=O)O)C(=O)O [N-CMPL, N-carboxymethyl-Phe-Leu]",activity of blood serum enkephalinases,[1]; [10],comparable
"N[C@@H](CCC(=O)O)C(=O)N[C@@H](CC(=O)O)C(=O)NCC(=O)O [peptide H-Glu-Asp-Gly-OH, glutamyl-aspartyl-glycine] (H-Glu-Asp-Gly-OH)",chronic toxicity: side effects,[2],absence of side effects
same,"effect on ESR, erythrocyte resistance and biochemical indices of the blood serum",[2],No reliable effect
same,"pathologic changes (general status, blood indices, internal organs, cardiovascular and respiratory systems, liver and kidney functions)",[2],did not reveal any pathologic changes
same,number of Fos-positive neural cells in PVH,"[3]; 0.01 μg per rat intraperitoneal, stress-resistant rats, both not exposed and exposed to stress",increase
same,number of Fos-positive neurons in PVH,"[3]; 0.1 μg per rat intraperitoneal, against the background of stress, stress-resistant animals",increased
same,number of Fos-positive neural cells in PVH,"[3]; 0.1 μg per rat intraperitoneal, both stress-resistant and stress-prone rats",reduced
same,sub-acute toxicity: side effects,[4],absence of side effects
same,acute toxicity: toxic reactions,[5],does not cause toxic reactions
same,study participants showing good tolerability to hypoxia,"[6]; 5000 meters, 60 minutes, placebo 60%",80-90%
same,reduction of reactive anxiety as compared to the control group,"[6]; after 2 days of administration, different doses, intranasal or intramuscular",10-13%
same,lung ventilation in case of dosed physical load,[6]; after hypoxia impact,reduced lung ventilation
same,increase in heart rate (HR) caused by hypoxia,"[6]; depending on the dose and method of administration, placebo 30-40%",10-20%
same,increase in maximum oxygen consumption,[6]; [11],15-20%
same,increase in physical working capacity index (PWC 170),[6]; [11],15-20%
same,subjective status under hypoxic hypoxia versus initial level,"[6]; intramuscular administration, different doses",equal to the initial level
same,decrease in the subjective status under hypoxic hypoxia,[6]; intranasal infusion,4-5%
same,reactive anxiety level versus initial level,"[6]; next day after the impact of hypoxia, independently of the method of administration",equal to the initial one
same,subjective status better than the initial level,"[6]; next day after the impact of hypoxia, intramuscular administration",15%
same,subjective status better than the initial level,"[6]; next day after the impact of hypoxia, intranasal infusion",10%
same,dopamine content in blood serum,[7],decrease
same,histamine content in blood serum,[7],decrease
same,serotonin content in blood serum,[7],decrease
same,dopamine content in brain cortex,[8],reliable increase
same,noradrenaline content in brain cortex,[8],reliable increase
same,serotonin content in brain cortex,[8],reliable increase
same,content of c-Fos protein in pinealocytes,[9]; 0.5 μg per animal intranasal (FIG. 3),Mild but reliable increase
same,osmotic stress induced dilation of capillaries and pericapillary space in pineal gland parenchyma,[9]; 0.5 μg per animal intranasal (FIG. 4),partial reduction
same,activity of blood serum enkephalinases,[1]; [10],inhibited
CC[C@H](C)[C@H](N)C1=N[C@H](C(=O)N[C@@H](CC(C)C)C(=O)N[C@H](CCC(=O)O)C(=O)N[C@H](C(=O)N[C@H]2CCCCNC(=O)[C@H](CC(N)=O)NC(=O)[C@@H](CC(=O)O)NC(=O)[C@H](Cc3cnc[nH]3)NC(=O)[C@@H](Cc3ccccc3)NC(=O)[C@H]([C@@H](C)CC)NC(=O)[C@@H](CCCN)NC2=O)[C@@H](C)CC)CS1 [bacitracin] ({Ileψ(thiazoline)Cys}-L[dE]IK[dOrn]I[dF]H[dD]N; lactam 4-C),activity of blood serum enkephalinases,"[1]; 50 μg/ml, human blood serum of 5 healthy donors",comparable
